Results as given in patent US9783527B2, “Indazole ureas and method of use” (AbbVie Inc., priority 2014, dated 2017).

Legend:
human Nav1.8 = human Nav1.8 (Homo sapiens (Human), UniProt Q9Y5Y9); test: FRET-based membrane potential assay, recombinant human sodium channel Nav1.8; format: cell-based; settings: HEK293 cells stably expressing recombinant human Nav1.8; depolarization with veratridine (EC80) + scorpion venom
Method in brief: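 HEK293 cells stably expressing Nav1.8 were loaded with CC2-DMPE/DiSBAC2(3) FRET voltage dyes. Compounds were added 3 min before depolarization with EC80 veratridine plus scorpion venom. The F440-480/F565-625 ratio was read on FLIPR; IC50 came from four-parameter Hill fits.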

human Nav1.7 = human Nav1.7 (Homo sapiens (Human), UniProt Q15858); test: FRET-based membrane potential assay, recombinant human sodium channel Nav1.7; format: cell-based; settings: HEK293 cells stably expressing recombinant human Nav1.7; depolarization with veratridine (EC80) + scorpion venom
human Nav1.7, sequence (Q15858 whole entry): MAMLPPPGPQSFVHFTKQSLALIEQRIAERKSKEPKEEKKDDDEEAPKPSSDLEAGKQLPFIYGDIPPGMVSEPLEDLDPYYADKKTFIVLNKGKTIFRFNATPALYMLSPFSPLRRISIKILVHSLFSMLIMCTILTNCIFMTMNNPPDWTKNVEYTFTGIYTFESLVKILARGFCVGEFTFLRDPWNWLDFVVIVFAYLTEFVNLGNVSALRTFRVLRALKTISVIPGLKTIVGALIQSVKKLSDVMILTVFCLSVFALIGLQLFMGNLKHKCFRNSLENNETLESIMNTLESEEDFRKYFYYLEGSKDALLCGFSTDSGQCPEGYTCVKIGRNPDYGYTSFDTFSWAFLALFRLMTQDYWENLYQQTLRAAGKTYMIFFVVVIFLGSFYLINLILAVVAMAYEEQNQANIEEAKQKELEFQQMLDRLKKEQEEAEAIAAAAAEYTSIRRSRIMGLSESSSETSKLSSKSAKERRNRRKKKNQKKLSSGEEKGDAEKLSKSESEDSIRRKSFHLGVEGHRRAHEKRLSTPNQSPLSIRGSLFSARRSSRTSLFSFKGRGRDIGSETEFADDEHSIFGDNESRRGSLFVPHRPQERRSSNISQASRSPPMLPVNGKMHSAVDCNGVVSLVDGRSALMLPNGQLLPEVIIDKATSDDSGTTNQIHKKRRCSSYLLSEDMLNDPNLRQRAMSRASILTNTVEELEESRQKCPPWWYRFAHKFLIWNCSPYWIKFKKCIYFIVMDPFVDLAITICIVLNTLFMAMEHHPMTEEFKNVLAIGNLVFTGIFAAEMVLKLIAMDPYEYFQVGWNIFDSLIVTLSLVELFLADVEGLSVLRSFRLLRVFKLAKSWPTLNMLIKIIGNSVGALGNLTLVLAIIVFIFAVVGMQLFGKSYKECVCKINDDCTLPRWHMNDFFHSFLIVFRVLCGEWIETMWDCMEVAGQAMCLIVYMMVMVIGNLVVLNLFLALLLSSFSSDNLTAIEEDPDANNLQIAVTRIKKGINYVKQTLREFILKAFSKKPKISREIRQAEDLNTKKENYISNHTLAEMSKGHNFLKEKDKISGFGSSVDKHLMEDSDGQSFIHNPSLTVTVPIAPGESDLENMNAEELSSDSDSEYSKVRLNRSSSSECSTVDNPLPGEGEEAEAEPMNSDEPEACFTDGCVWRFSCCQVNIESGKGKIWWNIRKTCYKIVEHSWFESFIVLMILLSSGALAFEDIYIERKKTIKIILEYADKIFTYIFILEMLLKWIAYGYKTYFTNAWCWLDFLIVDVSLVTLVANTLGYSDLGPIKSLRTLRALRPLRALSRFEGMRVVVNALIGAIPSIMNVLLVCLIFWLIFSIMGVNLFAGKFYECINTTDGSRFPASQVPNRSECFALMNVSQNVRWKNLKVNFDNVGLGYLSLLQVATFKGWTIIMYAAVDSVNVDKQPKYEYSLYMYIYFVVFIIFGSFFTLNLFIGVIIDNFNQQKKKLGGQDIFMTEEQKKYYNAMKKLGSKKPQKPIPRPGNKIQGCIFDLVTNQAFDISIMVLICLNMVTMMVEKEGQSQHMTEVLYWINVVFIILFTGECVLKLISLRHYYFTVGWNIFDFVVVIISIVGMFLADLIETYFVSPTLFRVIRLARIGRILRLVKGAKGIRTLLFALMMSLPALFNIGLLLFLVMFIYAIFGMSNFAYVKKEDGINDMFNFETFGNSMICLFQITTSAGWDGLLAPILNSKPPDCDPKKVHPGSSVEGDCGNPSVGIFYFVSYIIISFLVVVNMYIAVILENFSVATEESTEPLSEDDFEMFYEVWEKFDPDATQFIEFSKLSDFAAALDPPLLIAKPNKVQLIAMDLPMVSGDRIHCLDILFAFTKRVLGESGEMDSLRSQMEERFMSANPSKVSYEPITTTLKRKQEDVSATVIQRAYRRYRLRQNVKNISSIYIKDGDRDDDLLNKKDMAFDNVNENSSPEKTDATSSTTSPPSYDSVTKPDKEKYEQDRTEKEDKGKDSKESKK
Method in brief: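 IC50 derived by four-parameter Hill fit of percent inhibition of depolarization, measured as peak F440-480/F565-625 ratio over baseline. Stable human Nav1.7 HEK293 cells, dye-loaded with CC2-DMPE and DiSBAC2(3)/VABSC-1 at room temperature, received compound 3 min ahead of veratridine (EC80) plus scorpion venom.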

human Nav1.8, sequence (Q9Y5Y9 whole entry): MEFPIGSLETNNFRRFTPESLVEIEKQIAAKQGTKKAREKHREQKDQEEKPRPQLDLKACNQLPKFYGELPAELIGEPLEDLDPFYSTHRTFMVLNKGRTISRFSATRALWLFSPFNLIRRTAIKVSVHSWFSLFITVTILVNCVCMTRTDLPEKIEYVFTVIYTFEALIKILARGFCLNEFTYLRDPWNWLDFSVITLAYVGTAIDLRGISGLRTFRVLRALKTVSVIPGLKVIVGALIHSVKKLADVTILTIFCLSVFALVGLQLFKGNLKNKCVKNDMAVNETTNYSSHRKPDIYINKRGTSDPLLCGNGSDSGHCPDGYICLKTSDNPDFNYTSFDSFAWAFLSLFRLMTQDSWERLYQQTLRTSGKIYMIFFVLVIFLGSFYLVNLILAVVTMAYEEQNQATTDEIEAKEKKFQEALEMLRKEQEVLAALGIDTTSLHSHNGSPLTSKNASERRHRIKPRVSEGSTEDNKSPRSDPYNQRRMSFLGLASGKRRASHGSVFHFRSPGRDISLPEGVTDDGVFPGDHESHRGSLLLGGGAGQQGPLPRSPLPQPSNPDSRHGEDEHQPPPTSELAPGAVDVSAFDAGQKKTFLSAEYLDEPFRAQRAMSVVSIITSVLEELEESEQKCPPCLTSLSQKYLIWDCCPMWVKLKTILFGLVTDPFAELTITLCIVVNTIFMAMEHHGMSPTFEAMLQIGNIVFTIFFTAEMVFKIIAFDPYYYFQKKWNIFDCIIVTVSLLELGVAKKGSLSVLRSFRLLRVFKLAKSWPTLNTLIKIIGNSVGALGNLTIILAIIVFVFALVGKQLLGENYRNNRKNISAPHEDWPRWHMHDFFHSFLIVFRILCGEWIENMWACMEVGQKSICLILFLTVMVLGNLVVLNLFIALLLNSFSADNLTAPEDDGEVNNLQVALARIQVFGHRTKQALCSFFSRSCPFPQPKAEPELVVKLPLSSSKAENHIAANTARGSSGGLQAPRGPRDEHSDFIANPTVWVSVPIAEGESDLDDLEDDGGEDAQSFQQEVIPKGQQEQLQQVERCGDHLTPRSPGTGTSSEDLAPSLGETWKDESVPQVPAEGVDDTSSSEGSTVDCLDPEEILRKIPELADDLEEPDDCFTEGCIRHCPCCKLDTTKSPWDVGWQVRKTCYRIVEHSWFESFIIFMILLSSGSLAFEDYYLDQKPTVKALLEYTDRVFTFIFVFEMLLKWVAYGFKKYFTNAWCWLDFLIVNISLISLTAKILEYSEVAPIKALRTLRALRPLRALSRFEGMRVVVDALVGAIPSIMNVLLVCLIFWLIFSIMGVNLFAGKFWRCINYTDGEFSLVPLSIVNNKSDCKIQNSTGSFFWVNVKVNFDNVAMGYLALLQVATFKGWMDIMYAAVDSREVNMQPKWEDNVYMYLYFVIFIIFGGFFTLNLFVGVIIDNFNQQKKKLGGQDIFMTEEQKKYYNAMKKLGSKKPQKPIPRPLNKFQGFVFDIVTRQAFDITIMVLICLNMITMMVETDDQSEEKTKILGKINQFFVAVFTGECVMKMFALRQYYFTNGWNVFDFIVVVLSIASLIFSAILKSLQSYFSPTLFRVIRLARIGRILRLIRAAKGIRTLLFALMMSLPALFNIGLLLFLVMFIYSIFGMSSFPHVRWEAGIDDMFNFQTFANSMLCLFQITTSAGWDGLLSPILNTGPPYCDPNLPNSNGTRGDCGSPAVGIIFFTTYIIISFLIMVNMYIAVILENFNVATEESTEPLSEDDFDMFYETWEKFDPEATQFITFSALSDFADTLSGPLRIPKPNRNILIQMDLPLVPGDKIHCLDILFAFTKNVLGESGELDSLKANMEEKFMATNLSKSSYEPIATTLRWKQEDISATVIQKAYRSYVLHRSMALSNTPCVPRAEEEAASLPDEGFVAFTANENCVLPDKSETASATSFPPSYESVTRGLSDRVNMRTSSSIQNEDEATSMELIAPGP

| SMILES | IC50 (human Nav1.8) [nM] | IC50 (human Nav1.7) [nM] |
| --- | --- | --- |
| O=C(CN1CCN(c2cccc3c2cnn3-c2ccccc2F)C1=O)NC1CCCC1 [Example 323, N-cyclopentyl-2-{3-[1-(2-fluorophenyl)-1H-indazol-4-yl]-2-oxoimidazolidin-1-yl}acetamide] | 695 | 1460 |
| O=C(CN1CCN(c2cccc3c2cnn3-c2ccccc2F)C1=O)NC1CCCCC1 [Example 324, N-cyclohexyl-2-{3-[1-(2-fluorophenyl)-1H-indazol-4-yl]-2-oxoimidazolidin-1-yl}acetamide] | 526 | 1410 |
| CC(=O)C1CN(C(=O)CN2CCN(c3cccc4c3cnn4-c3ccccc3F)C2=O)C1 [Example 325, 1-[2-(3-acetylazetidin-1-yl)-2-oxoethyl]-3-[1-(2-fluorophenyl)-1H-indazol-4-yl]imidazolidin-2-one] | 3860 | 3120 |
| O=C(/C=C/N1CCN(c2cccc3c2cnn3-c2ccccc2F)C1=O)N1CC[C@H](F)C1 [Example 327, 1-[1-(2-fluorophenyl)-1H-indazol-4-yl]-3-{(1E)-3-[(3S)-3-fluoropyrrolidin-1-yl]-3-oxoprop-1-en-1-yl}imidazolidin-2-one] | 678 | 2890 |
| O=C(CN1CCN(c2cccc3c2cnn3-c2ccccc2F)C1=O)N1CC(C(F)(F)F)C1 [Example 329, 1-[1-(2-fluorophenyl)-1H-indazol-4-yl]-3-{2-oxo-2-[3-(trifluoromethyl)azetidin-1-yl]ethyl}imidazolidin-2-one] | 3130 | 2720 |
| CC(C)O[C@H]1CCCC[C@@H]1N1CCN(c2cccc3c2cnn3-c2ccccc2F)C1=O [Example 331, 1-[1-(2-fluorophenyl)-1H-indazol-4-yl]-3-[(1S,2S)-2-isopropoxycyclohexyl]imidazolidin-2-one] | 3650 | 1440 |
| O=C(CN1CCN(c2cccc3c2cnn3-c2ccccc2F)C1=O)N[C@@H]1CCC[C@@H]1O [Example 332, 2-{3-[1-(2-fluorophenyl)-1H-indazol-4-yl]-2-oxoimidazolidin-1-yl}-N-[(1R,2S)-2-hydroxycyclopentyl]acetamide] | 2640 | 5100 |
| O=C(CN1CCN(c2cccc3c2cnn3-c2ccccc2F)C1=O)N[C@H]1CCC[C@@H]1OCc1ccccc1 [Example 334, N-[(1S,2S)-2-(benzyloxy)cyclopentyl]-2-{3-[1-(2-fluorophenyl)-1H-indazol-4-yl]-2-oxoimidazolidin-1-yl}acetamide] | 657 | 1930 |
| O=C(CN1CCN(c2cccc3c2cnn3-c2ccccc2F)C1=O)N[C@@H]1CCC[C@H]1OCc1ccccc1 [Example 335, N-[(1R,2R)-2-(benzyloxy)cyclopentyl]-2-{3-[1-(2-fluorophenyl)-1H-indazol-4-yl]-2-oxoimidazolidin-1-yl}acetamide] | 501 | 1110 |
| CC(C)COC1COCC1N1CCN(c2cccc3c2cnn3-c2ccccc2F)C1=O (stereo not shown) [Example 336, 1-[1-(2-fluorophenyl)-1H-indazol-4-yl]-3-(4-isobutoxytetrahydrofuran-3-yl)imidazolidin-2-one] | 867 | 2140 |
| CC(C)CO[C@H]1CCC[C@H]1NC(=O)CN1CCN(c2cccc3c2cnn3-c2ccccc2F)C1=O [Example 337, 2-{3-[1-(2-fluorophenyl)-1H-indazol-4-yl]-2-oxoimidazolidin-1-yl}-N-[(1R,2S)-2-isobutoxycyclopentyl]acetamide] | 846 | 2240 |
| O=C(CN1CCN(c2cccc3c2cnn3-c2ccc(Cl)cc2)C1=O)N1CC[C@H](F)C1 [Example 338, 1-[1-(4-chlorophenyl)-1H-indazol-4-yl]-3-{2-[(3S)-3-fluoropyrrolidin-1-yl]-2-oxoethyl}imidazolidin-2-one] | 2620 | 1060 |
| CC(C)(C)NC(=O)CN1CCN(c2cccc3c2cnn3-c2ccccc2F)C1=O [Example 339, N-tert-butyl-2-{3-[1-(2-fluorophenyl)-1H-indazol-4-yl]-2-oxoimidazolidin-1-yl}acetamide] | 2670 | 5670 |
| O=C(CN1CCN(c2cccc3c2cnn3-c2ccccc2F)C1=O)NC1CCCC(F)(F)C1 (stereo not shown) [Example 340, N-(3,3-difluorocyclohexyl)-2-{3-[1-(2-fluorophenyl)-1H-indazol-4-yl]-2-oxoimidazolidin-1-yl}acetamide] | 637 | 2640 |
| O=C(CN1CCN(c2cccc3c2cnn3-c2ccccc2F)C1=O)NC1CCC(F)(F)C1 (stereo not shown) [Example 341, N-(3,3-difluorocyclopentyl)-2-{3-[1-(2-fluorophenyl)-1H-indazol-4-yl]-2-oxoimidazolidin-1-yl}acetamide] | 991 | 2900 |
| O=C(CN1CCN(c2cccc3c2cnn3-c2ccccc2F)C1=O)N1C[C@H]2CCC[C@H]2C1 [Example 342, 1-[1-(2-fluorophenyl)-1H-indazol-4-yl]-3-{2-[(3aR,6aS)-hexahydrocyclopenta[c]pyrrol-2(1H)-yl]-2-oxoethyl}imidazolidin-2-one] | 746 | 2210 |
| O=C(CN1CCN(c2cccc3c2cnn3-c2ccccc2F)C1=O)NCCC(F)(F)F [Example 343, 2-{3-[1-(2-fluorophenyl)-1H-indazol-4-yl]-2-oxoimidazolidin-1-yl}-N-(3,3,3-trifluoropropyl)acetamide] | 1270 | 3060 |
| NC(=O)[C@@H](Cc1ccccc1)NC(=O)CN1CCN(c2cccc3c2cnn3-c2ccccc2F)C1=O [Example 345, Nα-({3-[1-(2-fluorophenyl)-1H-indazol-4-yl]-2-oxoimidazolidin-1-yl}acetyl)-D-phenylalaninamide] | 1780 | 6060 |
| CC(C)[C@H](NC(=O)CN1CCN(c2cccc3c2cnn3-c2ccccc2F)C1=O)C(=O)NC(C)(C)C [Example 346, N-tert-butyl-N^2-({3-[1-(2-fluorophenyl)-1H-indazol-4-yl]-2-oxoimidazolidin-1-yl}acetyl)-L-valinamide] | 960 | 2040 |
| O=C(CN1CCN(c2cccc3c2cnn3-c2ccccc2F)C1=O)NC1CCCC1(F)F (stereo not shown) [Example 347, N-(2,2-difluorocyclopentyl)-2-{3-[1-(2-fluorophenyl)-1H-indazol-4-yl]-2-oxoimidazolidin-1-yl}acetamide] | 1290 | 3450 |
| O=C(CN1CCN(c2cccc3c2cnn3-c2cc(Cl)cc(Cl)c2)C1=O)N1CC[C@H](F)C1 [Example 348, 1-[1-(3,5-dichlorophenyl)-1H-indazol-4-yl]-3-{2-[(3S)-3-fluoropyrrolidin-1-yl]-2-oxoethyl}imidazolidin-2-one] | 3260 | 13400 |
| O=C1CC(NC(=O)CN2CCN(c3cccc4c3cnn4-c3ccccc3F)C2=O)C1 [Example 349, 2-{3-[1-(2-fluorophenyl)-1H-indazol-4-yl]-2-oxoimidazolidin-1-yl}-N-(3-oxocyclobutyl)acetamide] | 7570 | 15100 |
| O=C(CN1CCN(c2cccc3c2cnn3-c2ccccc2F)C1=O)NC1CC(O)C1 (stereo not shown) [Example 350, 2-{3-[1-(2-fluorophenyl)-1H-indazol-4-yl]-2-oxoimidazolidin-1-yl}-N-(3-hydroxycyclobutyl)acetamide] | 12300 | 9220 |
